Assay results taken from the CheMixHub viscosity set.
Values joined by “and” are separate entries in the source; they are usually repeats but may differ in a detail not shown here. Equal entries are not always repeated.

What was measured:
[1] = xn = mol fraction of the nth substance listed

C1CCCC1
viscosity [mPa·s]
Settings	293.15 K	303.15 K	313.15 K
100 kPa	0.428	0.385	0.348
101 kPa	–	0.387	–
101.3 kPa	–	–	0.3545

C=CCc1ccc2c(c1)OCO2
Settings	viscosity [mPa·s]
298.15 K, 101 kPa	2.29

CC(=O)OC(C)=O
viscosity [mPa·s]
Settings	298.15 K	313.15 K	323.15 K
101 kPa	0.842	0.693	–
101.33 kPa	0.831	–	0.611

CC(C)(C)C1CCCCC1
102 kPa
Settings	viscosity [mPa·s]
293.15 K	1.7
303.15 K	1.42
313.15 K	1.21
323.15 K	1.04

CCC(=O)CC
viscosity
Settings	298.15 K	303.15 K	308.15 K	313.15 K	318.15 K
100 kPa	–	0.428 mPa·s	–	0.366 mPa·s	–
101 kPa	0.449 mPa·s and 0.437 mPa·s	–	0.396 mPa·s and 0.393 mPa·s	0.376 mPa·s and 0.376 mPa·s	–
101.33 kPa	0.408 mPa·s	0.424 mPa·s	0.373 mPa·s	–	0.351 mPa·s

CCC(C)CC(C)C (centres undefined)
100 kPa
Settings	viscosity [mPa·s]
293.15 K	0.476
298.15 K	0.455
303.15 K	0.434
308.15 K	0.416
313.15 K	0.4

CCN(CC)C(C)=O
Settings	viscosity [mPa·s]
298.16 K, 101 kPa	1.226

CN1CCCC1=O
viscosity
Settings	293.15 K	298 K	303 K	303.15 K	313 K	313.15 K	318 K	323 K	323.15 K
100 kPa	1.853 mPa·s	–	–	–	–	–	–	–	–
101 kPa	1.91 mPa·s	1.61 mPa·s	1.5 mPa·s	1.623 mPa·s and 1.521 mPa·s	1.29 mPa·s	1.401 mPa·s and 1.3 mPa·s	1.22 mPa·s	1.12 mPa·s	1.231 mPa·s

C[n+]1ccn(CCCCCn2cc[n+](C)c2)c1.O=S(=O)([N-]S(=O)(=O)C(F)(F)F)C(F)(F)F.O=S(=O)([N-]S(=O)(=O)C(F)(F)F)C(F)(F)F
101 kPa
Settings	viscosity
293.15 K	1125 mPa·s and 1123 mPa·s
303.15 K	554.9 mPa·s and 556.8 mPa·s
313.15 K	313.4 mPa·s and 310.4 mPa·s
323.15 K	192.3 mPa·s and 188.8 mPa·s

NCCO
viscosity
Settings	293.15 K	298.15 K	303.15 K	313.15 K	318.15 K	323.15 K
101 kPa	31.3 mPa·s	18.64 mPa·s	15.34 mPa·s and 14.05 mPa·s	9.9 mPa·s and 9.972 mPa·s and 9.95 mPa·s	8.1 mPa·s	6.88 mPa·s and 9.44 mPa·s and 7.01 mPa·s
101.3 kPa	–	–	–	9.702 mPa·s	–	–

NCCO.O=S(=O)([N-]S(=O)(=O)C(F)(F)F)C(F)(F)F.[Li+]
Settings	viscosity [mPa·s]
323.15 K, 101 kPa	1157

OCc1ccccc1
Settings	viscosity
293.15 K, 100 kPa	6.421 mPa·s
293.15 K, 101.33 kPa	6.536 mPa·s
298.15 K, 101 kPa	4.936 mPa·s and 5.54 mPa·s and 5.737 mPa·s
298.15 K, 101.3 kPa	5.313 mPa·s
298.15 K, 101.33 kPa	5.276 mPa·s
303.15 K, 101.3 kPa	4.609 mPa·s and 4.515 mPa·s
308.15 K, 101 kPa	3.66 mPa·s and 4.045 mPa·s
308.15 K, 101.3 kPa	3.877 mPa·s
308.15 K, 101.33 kPa	3.891 mPa·s
313.15 K, 101 kPa	3.121 mPa·s and 3.614 mPa·s and 3.51 mPa·s
318.15 K, 101.33 kPa	2.945 mPa·s
323.15 K, 101 kPa	2.646 mPa·s and 2.548 mPa·s
323.15 K, 101.33 kPa	2.591 mPa·s

CCC(=O)CC + ClC=C(Cl)Cl
viscosity [mPa·s], [1], 101.33 kPa
Settings	x2 = 0.1126	x2 = 0.2042	x2 = 0.2941	x2 = 0.4591	x2 = 0.5988	x2 = 0.6807	x2 = 0.7837	x2 = 0.8997
298.15 K	0.439	0.463	0.489	0.532	0.57	0.582	0.598	0.614
308.15 K	0.402	0.426	0.449	0.491	0.523	0.539	0.558	0.574
318.15 K	0.379	0.401	0.422	0.462	0.494	0.508	0.525	0.544

OCc1ccccc1 + Clc1ccccc1
[1], 303.15 K, 101 kPa
Settings	viscosity [mPa·s]
x1 = 0.1372	0.9498
x1 = 0.2844	1.158
x1 = 0.3371	1.26
x1 = 0.4255	1.459
x1 = 0.5741	1.907
x1 = 0.6507	2.212
x1 = 0.7556	2.713
x1 = 0.8031	2.982
x1 = 0.9053	3.662

CCOC(=O)CC#N + N#CCc1ccccc1
viscosity [mPa·s], [1], 101 kPa
Settings	x2 = 0.1383	x2 = 0.4842	x2 = 0.8426
303.15 K	2.135	1.995	–
313.15 K	–	–	1.535

CC(=O)OC(C)=O + O
viscosity [mPa·s], [1], 101 kPa
Settings	x1 = 0.2	x1 = 0.4	x1 = 0.45	x1 = 0.5	x1 = 0.6	x1 = 0.8
298.15 K	2.189	1.852	1.497	1.193	1.059	0.936
313.15 K	1.484	1.294	1.104	0.921	0.835	0.735

CCCCCCCCCCCCCC[P+](CCCCCC)(CCCCCC)CCCCCC.[O-]c1ccccc1 + O
Settings	viscosity [mPa·s]
[1], 298.15 K, 100 kPa, x2 = 0.69	183

CCN(CC)C(C)=O + O
[1], 298.16 K, 101 kPa
Settings	viscosity [mPa·s]
x2 = 0.065	1.32
x2 = 0.1626	1.56
x2 = 0.255	1.86
x2 = 0.3529	2.26
x2 = 0.4791	2.92
x2 = 0.6036	3.7
x2 = 0.6894	4.22
x2 = 0.7465	4.38
x2 = 0.7702	4.36
x2 = 0.8188	4.2
x2 = 0.9049	2.45

NCCO.O=S(=O)([N-]S(=O)(=O)C(F)(F)F)C(F)(F)F.[Li+] + O
[1], 323.15 K, 101 kPa
Settings	viscosity [mPa·s]
x1 = 0.03	1.2
x1 = 0.0597	2.1
x1 = 0.1001	3.72
x1 = 0.1995	8.33
x1 = 0.298	23.19
x1 = 0.4016	56.22
x1 = 0.4908	103.5
x1 = 0.6602	251.5
x1 = 0.8109	498.1
x1 = 0.8996	741.6
